From the OligoGym collection
After the bases stand the sugars from the 5' end (letter, count) and the backbone: PS all phosphorothioate, else s phosphorothioate and o phosphodiester by linkage. Methylation of C is not given here. e = 2'-O-(2-methoxyethyl) (MOE); k = constrained ethyl (cEt); d = 2'-deoxy (DNA); m = 2'-O-methyl

Target: HSD17B13
Details: ASO, HepaRG

Sequence | target mRNA inhibition (1 µM) [%] | also measured
ACTGCTGCTAGTGCCA (sugars kkdddddddddkekek, PS) | 39 | 
ACTTGAACAGTCTTAA (sugars k3 d1 m1 d8 k3, PS) | 29 | 
ACTTGAACAGTCTTAA (sugars k3 d9 k3 e1, PS) | 60 | 
ACTTGAACAGTCTTAA (sugars kkdddddddddkekek, PS) | 60 | 
ACTTGATCTCTTAGCT (sugars k3 d10 k3, PS) | 59 | 
ACTTTTAGTCAGGTAG (sugars k3 d10 k3, PS) | 26 | 
ACTTTTGGTGGACTTC (sugars k3 d10 k3, PS) | 0 | 
AGAAATTTGTGAACCT (sugars k3 d10 k3, PS) | 39 | 
AGAAGGACTTTCATAG (sugars k3 d10 k3, PS) | 46 | 
AGAATTAAGGGCTATA (sugars k3 d10 k3, PS) | 45 | 
AGACAATGACATAGAC (sugars k3 d10 k3, PS) | 14 | 
AGACAGACTGTTGAGC (sugars k3 d10 k3, PS) | 74 | 
AGACCAAGTAGCTTAC (sugars k3 d10 k3, PS) | 42 | 
AGACTTTGAGACTCTT (sugars k3 d9 k3 e1, PS) | 41 | 
AGACTTTGAGACTCTT (sugars kkdddddddddkekek, PS) | 55 | 
AGACUTTGAGACTCTT (sugars k3 d1 m1 d8 k3, PS) | 48 | 
AGAGAGTAATCAGTTT (sugars k3 d9 k3 e1, PS) | 51 | 
AGAGAGTAATCAGTTT (sugars k3 d10 k3, PS) | 39 | 
AGAGCATAAGTTACCA (sugars k3 d10 k3, PS) | 88 | target mRNA inhibition (0.02 µM): 4%; target mRNA inhibition (0.078 µM): 11%; target mRNA inhibition (0.313 µM): 50%; target mRNA inhibition (1.25 µM): 78%; target mRNA inhibition (5 µM): 79%
AGAGGCTAGGGAAATC (sugars k3 d9 k3 e1, PS) | 68 | 
AGAGGGTCCACTTTTG (sugars k3 d10 k3, PS) | 34 | 
AGAGTATTTCCTCTGG (sugars k3 d10 k3, PS) | 32 | 

Sequence | target mRNA inhibition (1 µM) [%] | also measured
AGAGTCGGTCACCTTT (sugars k3 d9 k3 e1, PS) | 66 | 
AGAGTTGCACCGTTTT (sugars kkdddddddddkekek, PS) | 80 | target mRNA inhibition (0.02 µM): 6%; target mRNA inhibition (0.078 µM): 18%; target mRNA inhibition (0.313 µM): 38%; target mRNA inhibition (1.25 µM): 63%; target mRNA inhibition (5 µM): 81%
AGATCCCGTTCTTGCC (sugars k3 d10 k3, PS) | 68 | target mRNA inhibition (0.02 µM): 0%; target mRNA inhibition (0.078 µM): 20%; target mRNA inhibition (0.313 µM): 47%; target mRNA inhibition (1.25 µM): 72%; target mRNA inhibition (5 µM): 76%
AGATGTACACTGACAA (sugars k3 d10 k3, PS) | 66 | 
AGCAAAGTTTGGGCAG (sugars k3 d10 k3, PS) | 44 | 
AGCATAAGTTACCAGA (sugars k3 d10 k3, PS) | 87 | target mRNA inhibition (0.02 µM): 14%; target mRNA inhibition (0.078 µM): 31%; target mRNA inhibition (0.313 µM): 49%; target mRNA inhibition (1.25 µM): 73%; target mRNA inhibition (5 µM): 92%
AGCATTATTCACCACG (sugars k3 d10 k3, PS) | 53 | 
AGCCACTGTGACGATG (sugars k3 d10 k3, PS) | 10 | 
AGCCAGTACAGTTCCT (sugars k3 d10 k3, PS) | 58 | 
AGCCAGTACAGTTCCT (sugars kkdddddddddkekek, PS) | 49 | 
AGCCTTAGAGTGAATC (sugars k3 d10 k3, PS) | 74 | target mRNA inhibition (0.02 µM): 35%; target mRNA inhibition (0.078 µM): 54%; target mRNA inhibition (0.313 µM): 84%; target mRNA inhibition (1.25 µM): 94%; target mRNA inhibition (5 µM): 89%
AGCTAGATACTCAATT (sugars k3 d10 k3, PS) | 2 | 
AGCTATTGTCTTTGAT (sugars k3 d10 k3, PS) | 39 | 
AGCTGAGAGTTCTACA (sugars k3 d10 k3, PS) | 67 | 
AGCTGGTAAAGGTAAG (sugars k3 d10 k3, PS) | 55 | 
AGCTGTGCACTCATTC (sugars k3 d10 k3, PS) | 57 | 
AGGAAGTGATCCATAT (sugars k3 d10 k3, PS) | 60 | 
AGGATGATGTTCATGG (sugars k3 d10 k3, PS) | 88 | target mRNA inhibition (0.02 µM): 25%; target mRNA inhibition (0.078 µM): 27%; target mRNA inhibition (0.313 µM): 71%; target mRNA inhibition (1.25 µM): 80%; target mRNA inhibition (5 µM): 71%
AGGATGTTGACCTCAA (sugars k3 d10 k3, PS) | 4 | 
AGGAUAGTCCATGCAA (sugars k3 d1 m1 d8 k3, PS) | 55 | 
AGGCAGTTGAAGTTGA (sugars k3 d10 k3, PS) | 47 | 
AGGCTGTAAGAGTCAG (sugars k3 d9 k3 e1, PS) | 49 | 

Sequence | target mRNA inhibition (1 µM) [%] | also measured
AGGCUGTAAGAGTCAG (sugars k3 d1 m1 d8 k3, PS) | 52 | 
AGGGAAGATCTGGCTG (sugars k3 d10 k3, PS) | 4 | 
AGGTAAGGAATCCCTT (sugars k3 d10 k3, PS) | 0 | 
AGGTTGAGATAAAGCT (sugars k3 d9 k3 e1, PS) | 71 | target mRNA inhibition (0.02 µM): 0%; target mRNA inhibition (0.078 µM): 23%; target mRNA inhibition (0.313 µM): 46%; target mRNA inhibition (1.25 µM): 64%; target mRNA inhibition (5 µM): 77%
AGGTTGAGATAAAGCT (sugars k3 d10 k3, PS) | 74 | target mRNA inhibition (0.02 µM): 20%; target mRNA inhibition (0.078 µM): 27%; target mRNA inhibition (0.313 µM): 40%; target mRNA inhibition (1.25 µM): 69%; target mRNA inhibition (5 µM): 86%
AGGTTGAGATAAAGCT (sugars kkdddddddddkekek, PS) | 60 | 
AGTAAACGACTCTGTA (sugars k3 d10 k3, PS) | 33 | 
AGTAAATGATGGCAGG (sugars k3 d10 k3, PS) | 40 | 
AGTAATCACAAGTAAG (sugars k3 d10 k3, PS) | 54 | 
AGTACAGTTCCTTTTC (sugars k3 d1 m1 d8 k3, PS) | 56 | 
AGTAGATTTGGTAGAG (sugars k3 d10 k3, PS) | 67 | 
AGTAGTGTAAGCTGAG (sugars k3 d1 m1 d8 k3, PS) | 68 | 
AGTAGTGTAAGCTGAG (sugars kkdddddddddkekek, PS) | 52 | 
AGTATAGTTATCTTCT (sugars k3 d10 k3, PS) | 67 | 
AGTATTCCATCTATCA (sugars k3 d10 k3, PS) | 62 | 
AGTATTTGGGTGTTCT (sugars k3 d10 k3, PS) | 17 | 
AGTCAGTATCCCCTCA (sugars k3 d10 k3, PS) | 82 | target mRNA inhibition (0.02 µM): 6%; target mRNA inhibition (0.078 µM): 14%; target mRNA inhibition (0.313 µM): 32%; target mRNA inhibition (1.25 µM): 70%; target mRNA inhibition (5 µM): 74%
AGTCATTTTTAATACG (sugars k3 d10 k3, PS) | 13 | 
AGTCCATGCAAAAGCA (sugars k3 d1 m1 d8 k3, PS) | 73 | target mRNA inhibition (0.02 µM): 0%; target mRNA inhibition (0.078 µM): 21%; target mRNA inhibition (0.313 µM): 20%; target mRNA inhibition (1.25 µM): 65%; target mRNA inhibition (5 µM): 75%
AGTCCTTGTGTAGTCC (sugars k3 d10 k3, PS) | 64 | 
AGTCGGTCACCTTTCA (sugars k3 d9 k3 e1, PS) | 75 | target mRNA inhibition (0.02 µM): 1%; target mRNA inhibition (0.078 µM): 17%; target mRNA inhibition (0.313 µM): 37%; target mRNA inhibition (1.25 µM): 66%; target mRNA inhibition (5 µM): 62%
AGTCGGTCACCTTTCA (sugars k3 d10 k3, PS) | 66 | 

Sequence | target mRNA inhibition (1 µM) [%] | also measured
AGTCTACCACATACGC (sugars k3 d10 k3, PS) | 65 | 
AGTCTTGATGTAGTGG (sugars k3 d10 k3, PS) | 63 | 
AGTGAAATCTTGTGTA (sugars k3 d10 k3, PS) | 41 | 
AGTGAATCATTCAGTA (sugars k3 d10 k3, PS) | 86 | target mRNA inhibition (0.02 µM): 49%; target mRNA inhibition (0.078 µM): 54%; target mRNA inhibition (0.313 µM): 80%; target mRNA inhibition (1.25 µM): 93%; target mRNA inhibition (5 µM): 94%
AGTGCATCTTAAGATA (sugars k3 d10 k3, PS) | 57 | 
AGTGCTTAGTTCATTG (sugars k3 d10 k3, PS) | 84 | target mRNA inhibition (0.02 µM): 0%; target mRNA inhibition (0.078 µM): 0%; target mRNA inhibition (0.313 µM): 31%; target mRNA inhibition (1.25 µM): 58%; target mRNA inhibition (5 µM): 84%
AGTGCTTTTGTGATCC (sugars k3 d10 k3, PS) | 25 | 
AGTGGGAGTCGGATTA (sugars k3 d10 k3, PS) | 50 | 
AGTGTAAGCTGAGAGT (sugars k3 d10 k3, PS) | 71 | 
AGTTAATAGGACTAAA (sugars k3 d10 k3, PS) | 13 | 
AGTTAGGGAGCCAGCG (sugars k3 d10 k3, PS) | 38 | 
AGTTATTAGAAGTCAG (sugars k3 d1 m1 d8 k3, PS) | 25 | 
AGTTTAGATTGCATAA (sugars k3 d10 k3, PS) | 50 | 
AGTTTTGGGACCAATA (sugars k3 d10 k3, PS) | 31 | 
AGTTTTTAAGAGGCAT (sugars k3 d10 k3, PS) | 75 | 
ATAAAAATCGCTGCTT (sugars k3 d10 k3, PS) | 11 | 
ATAAAGCTTTGCAGCA (sugars k3 d10 k3, PS) | 54 | 
ATAACATGGCTGGCAT (sugars k3 d10 k3, PS) | 14 | 
ATAACTACAAGAGGTT (sugars k3 d9 k3 e1, PS) | 67 | 
ATAACTACAAGAGGTT (sugars k3 d10 k3, PS) | 64 | 
ATAAGAGCCAAACTGC (sugars k3 d10 k3, PS) | 49 | 
